Data reported in paper PMC11466185, “Mechanisms and efficacy of small molecule latency-promoting agents to inhibit HIV reactivation ex vivo” (JCI Insight, 2024).
Where “and” joins values, the source holds several entries; their conditions need not be identical. Identical values can stand only once.

Columns and labels:
[1] = system: PBMCs; experiment: Total number of live cells (proliferation) by trypan blue staining at day 6; type: cell-based, human; details: for Total live cell numbers (proliferation) compared with activated DMSO (in words) / Total number of live cells (Fig 6A): day 6; for Total live cell numbers (proliferation) compared with activated DMSO (in words): Figure 6A; for Fig 6B: total live cells relative to DMSO+CD3/28: DMSO+CD3/28 = 100
Outline: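 PBMCs with CD3/CD28 activating beads (except unactivated DMSO control) and compound for 6 days. Live cells counted by trypan blue and expressed as % of activated DMSO; Wilcoxon signed-rank test.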

[2] = system: HIV transcripts (TAR, LLTR, Pol, PolyA, TatRev); experiment: Latency reversal assay: cell-associated HIV transcripts (RT-ddPCR) 24 hours after anti-CD3/CD28 activation of PBMCs from ART-suppressed PWH; type: cell-based; design: key to TatRev: % of activated DMSO control, normalized to 1 μg total RNA; details: for Pol HIV transcripts (DMSO αCD3/28 = 100) / PolyA HIV transcripts (DMSO αCD3/28 = 100) / TatRev HIV transcripts (DMSO αCD3/28 = 100): αCD3/28-activated, ruxolitinib 4μM, triptolide 25-50nM, alvocidib 40nM, dinaciclib 8nM, AZD4573 8nM, quercetin 5μM, pladienolide B 10nM, isoginkgetin 25μM, herboxidiene 5nM, KRIBB11 2.5μM, tanespimycin 5μM, mithramycin A 25nM; for PolyA/LLTR / TatRev/PolyA / LLTR/TAR: DMSO+CD3/28 = 1, Fig 3B, C and D; for PolyA / TatRev: DMSO+αCD3/28 = 100, Fig 3A
Outline: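 PBMCs from ART-suppressed people with HIV (6 × 10^6 cells/well) treated with drug in DMSO, activated with anti-CD3/CD28 beads with antiretrovirals, harvested after 24 hours. TAR, LLTR, Pol, PolyA and TatRev transcripts measured by RT-ddPCR, normalized to 1 μg total RNA, expressed as % of activated DMSO control.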

[3] = 100nM, 24 h after αCD3/28 activation, each column one participant
[4] = 10/100nM, 24 h after αCD3/28 activation, each column one participant

pladienolide B
Total live cell numbers (proliferation) compared with activated DMSO (in words) [1]: significantly lower | Fig 6B: total live cells relative to DMSO+CD3/28 ([1]; participant 2027): 130.18 | Fig 6B: total live cells relative to DMSO+CD3/28 ([1]; participant 2147a): 87.14 | Fig 6B: total live cells relative to DMSO+CD3/28 ([1]; participant 2147b): 432.65 | Fig 6B: total live cells relative to DMSO+CD3/28 ([1]; participant 2161): 52.54 | Fig 6B: total live cells relative to DMSO+CD3/28 ([1]; participant 2461): 69.04 | Fig 6B: total live cells relative to DMSO+CD3/28 ([1]; participant 2747): 68.1 | Total number of live cells (Fig 6A) ([1]; study participant 150a): 26.64 % of activated DMSO | Total number of live cells (Fig 6A) ([1]; study participant 156): 40.97 % of activated DMSO | Total number of live cells (Fig 6A) ([1]; study participant 163): 70.82 % of activated DMSO | Total number of live cells (Fig 6A) ([1]; study participant 2027): 28.6 % of activated DMSO | Total number of live cells (Fig 6A) ([1]; study participant 2147a): 113.84 % of activated DMSO | Total number of live cells (Fig 6A) ([1]; study participant 2147b): 53.49 % of activated DMSO | Total number of live cells (Fig 6A) ([1]; study participant 2161): 58.44 % of activated DMSO | Total number of live cells (Fig 6A) ([1]; study participant 2461): 29.57 % of activated DMSO | Total number of live cells (Fig 6A) ([1]; study participant 2747): 105.45 % of activated DMSO | Total number of live cells (Fig 6A) ([1]; study participant 2750): 17.9 % of activated DMSO | LLTR HIV transcripts (DMSO+αCD3/28 = 100) [2, 3]: 105.44 and 112.17 | Pol HIV transcripts (DMSO+αCD3/28 = 100) [2, 3]: 61.14 and 46.29 | TatRev HIV transcripts (DMSO+αCD3/28 = 100) [2, 3]: 0 | LLTR HIV transcripts (DMSO+αCD3/28 = 100) [2, 4]: 105.44 and 112.17 and 22.15 and 34.23 and 14.5 and 7.78 and 32.23 | Pol HIV transcripts (DMSO+αCD3/28 = 100) [2, 4]: 61.14 and 46.29 and 2.85 and 58.11 and 12.19 and 5.03 and 29.65 | PolyA HIV transcripts (DMSO+αCD3/28 = 100) [2, 4]: 25.19 and 8 | TAR HIV transcripts (DMSO+αCD3/28 = 100) [2, 4]: 70.83 and 56.32 and 43.76 and 138.46 | TatRev HIV transcripts (DMSO+αCD3/28 = 100) [2, 4]: 0 (4×) and 2.98 and 6.21 and 11.47 | HIV transcriptional completion, ratio PolyA/LLTR ([2]; 24 hours, compared with activated DMSO, Figure 3C): reduced | HIV multiple splicing, ratio TatRev/PolyA ([2]; 24 hours, compared with activated DMSO, Figure 3D): reduce HIV multiple splicing | Reduction of multiply spliced or completed HIV transcripts in drug screen (selection as candidate LPA) ([2]; initial screening, 2 participants, 24 hours): more than 50% | Completed (PolyA) HIV transcripts, median relative to activated DMSO, initial screening ([2]; initial screening, 2 participants, 24 hours, Supplemental Figure 2): 17% | Pol HIV transcripts (DMSO αCD3/28 = 100) ([2]; participant 2027): 56.14 | PolyA HIV transcripts (DMSO αCD3/28 = 100) ([2]; participant 2027): 45.13 | TatRev HIV transcripts (DMSO αCD3/28 = 100) ([2]; participant 2027): 0 | Pol HIV transcripts (DMSO αCD3/28 = 100) ([2]; participant 2147a): 74.51 | PolyA HIV transcripts (DMSO αCD3/28 = 100) ([2]; participant 2147a): 38.34 | TatRev HIV transcripts (DMSO αCD3/28 = 100) ([2]; participant 2147a): 22.95 | Pol HIV transcripts (DMSO αCD3/28 = 100) ([2]; participant 2161): 44.19 | PolyA HIV transcripts (DMSO αCD3/28 = 100) ([2]; participant 2161): 152.38 | TatRev HIV transcripts (DMSO αCD3/28 = 100) ([2]; participant 2161): 381.82 | PolyA HIV transcripts (DMSO αCD3/28 = 100) ([2]; participant 2461): 53.85 | Pol HIV transcripts (DMSO αCD3/28 = 100) ([2]; participant 2747): 21.03 | PolyA HIV transcripts (DMSO αCD3/28 = 100) ([2]; participant 2747): 65.33 | TatRev HIV transcripts (DMSO αCD3/28 = 100) ([2]; participant 2747): 0 | Pol HIV transcripts (DMSO αCD3/28 = 100) ([2]; participant 2750): 212.24 | PolyA HIV transcripts (DMSO αCD3/28 = 100) ([2]; participant 2750): 74.85 | TatRev HIV transcripts (DMSO αCD3/28 = 100) ([2]; participant 2750): 155 | Multiply spliced HIV transcripts (TatRev) (Fig 1B) ([2]; study participant 150a, 24 hours): 0 % of activated DMSO | PolyA/LLTR ([2]; study participant 150a): 0.2389 | TatRev/PolyA ([2]; study participant 150a): 0 | PolyA ([2]; study participant 150a): 25.19 | TatRev ([2]; study participant 150a): 0 | Multiply spliced HIV transcripts (TatRev) (Fig 1B) ([2]; study participant 152, 24 hours): 0 % of activated DMSO | PolyA/LLTR ([2]; study participant 152): 0.07129 | TatRev/PolyA ([2]; study participant 152): 0 | PolyA ([2]; study participant 152): 8 | TatRev ([2]; study participant 152): 0 | PolyA/LLTR ([2]; study participant 163): 0.2589 | TatRev/PolyA ([2]; study participant 163): 0 | PolyA ([2]; study participant 163): 5.73 | TatRev ([2]; study participant 163): 0 | LLTR/TAR ([2]; study participant 1379): 0.1778 | PolyA/LLTR ([2]; study participant 1379): 0.4115 | TatRev/PolyA ([2]; study participant 1379): 0 | PolyA ([2]; study participant 1379): 3.2 | TatRev ([2]; study participant 1379): 0 | LLTR/TAR ([2]; study participant 2147b): 0.4833 | PolyA/LLTR ([2]; study participant 2147b): 0.2849 | TatRev/PolyA ([2]; study participant 2147b): 0.3058 | PolyA ([2]; study participant 2147b): 9.75 | TatRev ([2]; study participant 2147b): 2.98 | LLTR/TAR ([2]; study participant 2256): 0.2575 | PolyA/LLTR ([2]; study participant 2256): 0.2751 | TatRev/PolyA ([2]; study participant 2256): 1.556 | PolyA ([2]; study participant 2256): 3.99 | TatRev ([2]; study participant 2256): 6.21 | LLTR/TAR ([2]; study participant 5557): 0.2328 | PolyA/LLTR ([2]; study participant 5557): 0.5006 | TatRev/PolyA ([2]; study participant 5557): 0.7112 | PolyA ([2]; study participant 5557): 16.13 | TatRev ([2]; study participant 5557): 11.47

N#CC[C@H](C1CCCC1)n1cc(-c2ncnc3[nH]ccc23)cn1 [ruxolitinib]
Total live cell numbers (proliferation) compared with activated DMSO (in words) [1]: significantly lower | mrna remaining at 4 µM ([2]; Human immunodeficiency virus 1, PBMC, 24 h, 4μM, 24 h after αCD3/28 activation, each column one participant, read-out: TAR HIV transcripts (DMSO+αCD3/28 = 100)): 34.5%
